# Test results as given in ChEMBL document CHEMBL3785058, “Design and synthesis of novel 3-sulfonylpyrazol-4-amino pyrimidines as potent anaplastic lymphoma kinase (ALK) inhibitors” (Bioorg Med Chem Lett, 2016).
# Experiments:
# [1] = Antiproliferative activity against human KARPAS299 cells after 96 hrs by CellTiter-Glo assay; format: functional, cell-based; conditions: KARPAS-299, 96 h
# NCI-H2228 = assay: Antiproliferative activity against human NCI-H2228 cells after 96 hrs by CellTiter-Glo assay; format: functional, cell-based; conditions: NCI-H2228, 96 h
# [2] = Ratio of IC50 for human ERG to IC50 for human NCI-H2228 cells
# [3] = target: ALK tyrosine kinase receptor (Homo sapiens, UniProt Q9UM73); assay: Inhibition of recombinant human wild type ALK using tyrosine kinase substrate-biotin after 30 mins by HTRF assay
# [4] = target: ALK tyrosine kinase receptor (Homo sapiens, UniProt Q9UM73, L1196M); assay: Inhibition of recombinant human ALK L1196M mutant using tyrosine kinase substrate-biotin after 30 mins by HTRF assay
# Sequence of ALK tyrosine kinase receptor (Homo sapiens, UniProt Q9UM73, L1196M) (Q9UM73 19-1620 L1196M limits assumed): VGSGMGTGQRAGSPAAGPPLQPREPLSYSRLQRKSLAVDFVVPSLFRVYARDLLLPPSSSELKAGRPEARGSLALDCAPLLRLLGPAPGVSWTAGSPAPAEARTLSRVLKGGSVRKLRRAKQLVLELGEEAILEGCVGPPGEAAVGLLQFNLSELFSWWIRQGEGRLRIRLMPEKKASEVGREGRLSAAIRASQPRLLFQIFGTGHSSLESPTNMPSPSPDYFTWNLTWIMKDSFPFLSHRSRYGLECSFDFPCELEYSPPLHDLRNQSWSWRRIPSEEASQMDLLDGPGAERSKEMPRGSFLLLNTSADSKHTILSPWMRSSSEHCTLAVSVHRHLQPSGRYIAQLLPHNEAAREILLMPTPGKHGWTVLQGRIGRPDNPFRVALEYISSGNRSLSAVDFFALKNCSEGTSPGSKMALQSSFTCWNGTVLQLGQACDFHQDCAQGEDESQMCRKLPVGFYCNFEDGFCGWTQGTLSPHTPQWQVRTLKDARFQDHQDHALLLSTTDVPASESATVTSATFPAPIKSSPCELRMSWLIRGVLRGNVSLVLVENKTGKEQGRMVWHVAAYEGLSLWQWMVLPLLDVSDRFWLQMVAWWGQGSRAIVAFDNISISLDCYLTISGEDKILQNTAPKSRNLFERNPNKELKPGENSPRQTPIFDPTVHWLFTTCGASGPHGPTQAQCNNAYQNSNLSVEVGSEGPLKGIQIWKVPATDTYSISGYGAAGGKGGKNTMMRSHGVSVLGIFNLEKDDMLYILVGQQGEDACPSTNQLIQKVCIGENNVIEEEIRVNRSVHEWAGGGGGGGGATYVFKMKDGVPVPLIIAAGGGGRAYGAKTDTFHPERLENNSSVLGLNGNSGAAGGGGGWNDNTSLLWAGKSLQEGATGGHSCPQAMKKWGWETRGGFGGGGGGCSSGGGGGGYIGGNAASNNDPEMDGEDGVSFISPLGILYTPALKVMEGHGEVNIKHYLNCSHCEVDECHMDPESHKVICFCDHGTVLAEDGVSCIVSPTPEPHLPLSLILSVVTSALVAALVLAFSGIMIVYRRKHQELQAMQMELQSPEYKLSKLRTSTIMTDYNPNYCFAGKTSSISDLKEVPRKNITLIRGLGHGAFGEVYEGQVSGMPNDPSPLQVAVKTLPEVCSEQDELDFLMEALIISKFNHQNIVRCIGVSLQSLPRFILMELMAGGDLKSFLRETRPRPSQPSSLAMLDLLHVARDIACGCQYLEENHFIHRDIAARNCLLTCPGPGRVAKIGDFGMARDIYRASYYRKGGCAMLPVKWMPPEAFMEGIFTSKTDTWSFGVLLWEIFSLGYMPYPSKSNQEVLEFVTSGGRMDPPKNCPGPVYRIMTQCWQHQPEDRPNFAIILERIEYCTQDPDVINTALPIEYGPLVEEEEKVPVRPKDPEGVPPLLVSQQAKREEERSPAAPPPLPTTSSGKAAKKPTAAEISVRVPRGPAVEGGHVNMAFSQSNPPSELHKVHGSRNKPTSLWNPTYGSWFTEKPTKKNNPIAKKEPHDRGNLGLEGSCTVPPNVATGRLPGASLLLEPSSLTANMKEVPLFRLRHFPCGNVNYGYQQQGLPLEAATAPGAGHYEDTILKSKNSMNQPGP
# Sequence of ALK tyrosine kinase receptor (Homo sapiens, UniProt Q9UM73) (Q9UM73 whole entry): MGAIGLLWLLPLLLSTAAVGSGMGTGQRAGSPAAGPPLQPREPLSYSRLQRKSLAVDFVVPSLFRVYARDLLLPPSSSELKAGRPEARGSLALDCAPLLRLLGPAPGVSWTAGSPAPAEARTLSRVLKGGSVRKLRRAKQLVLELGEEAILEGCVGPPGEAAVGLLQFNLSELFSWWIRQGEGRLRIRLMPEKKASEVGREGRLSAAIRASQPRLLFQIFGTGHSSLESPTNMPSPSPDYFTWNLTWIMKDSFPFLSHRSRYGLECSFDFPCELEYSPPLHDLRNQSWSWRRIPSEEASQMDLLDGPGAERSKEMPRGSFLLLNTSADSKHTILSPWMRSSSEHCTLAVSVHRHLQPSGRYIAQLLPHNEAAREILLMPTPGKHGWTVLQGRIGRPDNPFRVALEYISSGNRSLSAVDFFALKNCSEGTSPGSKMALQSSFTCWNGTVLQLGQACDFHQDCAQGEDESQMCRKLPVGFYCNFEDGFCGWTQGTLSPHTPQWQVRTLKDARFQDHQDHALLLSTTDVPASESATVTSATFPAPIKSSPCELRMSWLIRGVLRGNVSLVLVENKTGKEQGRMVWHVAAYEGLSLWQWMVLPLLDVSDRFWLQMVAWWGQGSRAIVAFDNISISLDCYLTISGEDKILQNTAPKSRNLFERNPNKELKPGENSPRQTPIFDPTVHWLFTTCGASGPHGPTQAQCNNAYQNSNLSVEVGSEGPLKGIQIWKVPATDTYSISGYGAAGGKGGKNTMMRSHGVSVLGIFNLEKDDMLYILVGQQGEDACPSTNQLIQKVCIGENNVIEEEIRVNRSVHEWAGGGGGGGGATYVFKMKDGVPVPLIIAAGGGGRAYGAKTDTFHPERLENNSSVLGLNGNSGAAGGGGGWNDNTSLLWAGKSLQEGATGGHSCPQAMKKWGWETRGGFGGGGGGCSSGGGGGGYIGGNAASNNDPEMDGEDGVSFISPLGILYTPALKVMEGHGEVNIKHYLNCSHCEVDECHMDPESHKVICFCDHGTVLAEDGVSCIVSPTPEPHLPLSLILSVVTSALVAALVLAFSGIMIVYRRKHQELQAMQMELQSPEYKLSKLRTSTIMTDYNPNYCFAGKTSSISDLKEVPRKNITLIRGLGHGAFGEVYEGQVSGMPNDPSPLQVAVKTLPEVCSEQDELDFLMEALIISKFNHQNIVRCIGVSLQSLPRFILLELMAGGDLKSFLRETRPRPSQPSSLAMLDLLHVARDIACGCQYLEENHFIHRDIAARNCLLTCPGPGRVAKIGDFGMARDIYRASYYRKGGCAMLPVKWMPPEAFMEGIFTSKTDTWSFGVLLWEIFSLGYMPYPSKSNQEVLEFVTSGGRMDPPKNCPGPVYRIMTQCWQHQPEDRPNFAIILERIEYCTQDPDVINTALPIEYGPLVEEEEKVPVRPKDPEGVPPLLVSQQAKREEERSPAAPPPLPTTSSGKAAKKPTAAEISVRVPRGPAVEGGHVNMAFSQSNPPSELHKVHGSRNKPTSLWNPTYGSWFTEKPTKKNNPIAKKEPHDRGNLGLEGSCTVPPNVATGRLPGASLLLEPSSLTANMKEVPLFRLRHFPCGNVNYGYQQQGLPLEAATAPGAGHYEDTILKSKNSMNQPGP
Structure (SMILES),IC50 (NCI-H2228),IC50 [3],IC50 [4],IC50 [1],Ratio IC50 [2]
Cc1cc(Nc2ncc(Cl)c(Nc3cn(C)nc3S(=O)(=O)C(C)C(C)C)n2)c(OC(C)C)cc1C1CCNCC1 (centres undefined),> 10000 nM,753 nM,3900 nM,> 10000 nM,
Cc1cc(Nc2ncc(Cl)c(Nc3cn(C)nc3S(=O)(=O)N(C)C)n2)c(OC(C)C)cc1C1CCNCC1,,6680 nM,> 10000 nM,,
Cc1cc(Nc2ncnc(Nc3cn(C)nc3S(=O)(=O)C(C)C)n2)c(OC2CC2)cc1C1CCN(C)CC1,,36 nM,111 nM,,
Cc1cc(Nc2ncc(Cl)c(Nc3cn(C)nc3S(=O)(=O)C(C)C)n2)c(OC(C)C)cc1C1CCNCC1,198 nM,,,16 nM,
Cc1nc(S(=O)(=O)C(C)C)c(Nc2nc(Nc3cc(C)c(C4CCN(C)CC4)cc3OC3CC3)ncc2Cl)s1,150 nM,,,,
Cc1cc(Nc2ncc(Cl)c(Nc3cn(C)nc3S(=O)(=O)C(C)C)n2)c(OC2CC2)cc1[C@H]1CC[C@H](NC(=O)C2CC2)CC1,154 nM,,,,
Cc1cc(Nc2ncc(Cl)c(Nc3cn(C)nc3S(=O)(=O)C3CC3)n2)c(OC(C)C)cc1C1CCNCC1,> 10000 nM,400 nM,> 10000 nM,> 10000 nM,
Cc1cc(Nc2ncc(Cl)c(Nc3cn(C4CC4)nc3S(=O)(=O)C(C)C)n2)c(OC(C)C)cc1C1CCNCC1,248 nM,,,37 nM,
Cc1cc(Nc2ncc(Cl)c(Nc3cn(C)nc3S(=O)(=O)C(C)C)n2)c(OC2CC2)cc1[C@H]1CC[C@H](NCCN(C)C)CC1,210 nM,,,,

# More lines, in order of falling IC50 (NCI-H2228), values ahead:
IC50 (NCI-H2228),IC50 [3],IC50 [4],Structure (SMILES),IC50 [1],Ratio IC50 [2]
97 nM,3 nM,9 nM,Cc1cc(Nc2ncc(Cl)c(Nc3cn(C)nc3S(=O)(=O)C(C)C)n2)c(OC2CC2)cc1C1CCS(=O)(=O)CC1,,206
88 nM,,,Cc1cc(Nc2ncc(Cl)c(Nc3cn(C)nc3S(=O)(=O)C(C)C)n2)c(OC2CC2)cc1[C@H]1CC[C@H](NC2CC2)CC1,9 nM,23
87 nM,,,Cc1cc(Nc2ncc(C#N)c(Nc3cn(C)nc3S(=O)(=O)C(C)C)n2)c(OC2CC2)cc1C1CCN(C)CC1,,
81 nM,,,Cc1cc(Nc2ncc(F)c(Nc3cn(C)nc3S(=O)(=O)C(C)C)n2)c(OC2CC2)cc1C1CCN(C)CC1,,
60 nM,,,CCN(CC)[C@H]1CC[C@@H](c2cc(OC3CC3)c(Nc3ncc(Cl)c(Nc4cn(C)nc4S(=O)(=O)C(C)C)n3)cc2C)CC1,,
54 nM,,,Cc1cc(Nc2ncc(Cl)c(Nc3cn(C)nc3S(=O)(=O)C(C)C)n2)c(OC2CC2)cc1[C@H]1CC[C@H](NC(C)C)CC1,5 nM,16
39 nM,1 nM,,Cc1cc(Nc2ncc(Cl)c(Nc3cn(C)nc3S(=O)(=O)C(C)C)n2)c(OC2CC2)cc1C1CCN(C)CC1,,
